Results taken from patent US20100267561A1, “HERBICIDAL PYRIDAZINONE DERIVATIVES” (priority 2007, published 2010).

Key:
Format in all cases: in vivo
[1] = tested on: spring barley (Hordeum vulgare); test: Test C pre-/postemergence plant response; details: Preemergence
Method in brief: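 Both preemergence (to planted seed) and postemergence (to plants 2–18 cm high, 1- to 4-leaf) applications used test chemicals in a non-phytotoxic solvent mixture containing surfactant. Evaluation: visual comparison with controls after 15 to 25 days; 0 means no effect, 100 complete control.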

[2] = tested on: common mallow (Malva sylvestris); test: Test E pre-/postemergence plant response; details: scale 0 to 100
Method in brief: (§1)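 Steps: sow seeds; apply compound preemergence in a non-phytotoxic solvent/surfactant formulation; in parallel, spray the same formulation postemergence on 1- to 4-leaf plants (2–18 cm); hold 14–21 days in a greenhouse; rate visually vs controls, 0 = no effect, 100 = complete control.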

[3] = tested on: broadleaf signalgrass (Brachiaria platyphylla); test: Test E pre-/postemergence plant response; details: scale 0 to 100
Method in brief: as §1

[4] = tested on: itchgrass (Rottboellia cochinchinensis); test: Test E pre-/postemergence plant response; details: scale 0 to 100
Method in brief: as §1

[5] = tested on: common chickweed (Stellaria media); test: Test E pre-/postemergence plant response; details: Postemergence, scale 0 to 100
Method in brief: as §1

[6] = tested on: green foxtail (Setaria viridis); test: Test E pre-/postemergence plant response; details: scale 0 to 100
Method in brief: as §1

[7] = tested on: naked crabgrass (Digitaria nuda); test: Test E pre-/postemergence plant response; details: scale 0 to 100
Method in brief: as §1

[8] = tested on: johnsongrass (Sorghum halepense); test: Test E pre-/postemergence plant response; details: scale 0 to 100
Method in brief: as §1

[9] = tested on: barnyardgrass (Echinochloa crus-galli); test: Test E pre-/postemergence plant response; details: scale 0 to 100
Method in brief: as §1

[10] = tested on: dallisgrass (Paspalum dilatatum); test: Test E pre-/postemergence plant response; details: scale 0 to 100
Method in brief: as §1

[11] = tested on: bermudagrass (Cynodon dactylon); test: Test E pre-/postemergence plant response; details: scale 0 to 100
Method in brief: as §1

[12] = tested on: annual bluegrass (Poa annua); test: Test E pre-/postemergence plant response; details: scale 0 to 100
Method in brief: as §1

COC(=O)Oc1cnn(C)c(=O)c1-n1nc(-c2ccc(Cl)cc2)cc1C [Compound 33]
Plant response rating, Barley, Spring ([1]; 8 g ai/ha, scale 0 to 100 (0 no effect, 100 complete control)): 0
Plant response rating, Barley, Spring ([1]; 16 g ai/ha, scale 0 to 100 (0 no effect, 100 complete control)): 0
Plant response rating, Barley, Spring ([1]; 31 g ai/ha, scale 0 to 100 (0 no effect, 100 complete control)): 10
Plant response rating, Barley, Spring ([1]; 62 g ai/ha, scale 0 to 100, 0 no effect, 100 complete control): 25
Plant response rating, Mallow ([2]; 16 g ai/ha, Preemergence): 0
Plant response rating, Mallow ([2]; 31 g ai/ha, Preemergence): 0
Plant response rating, Mallow ([2]; 62 g ai/ha, Preemergence): 0
Plant response rating, Mallow ([2]; Postemergence, 8 g ai/ha): 0
Plant response rating, Mallow ([2]; Postemergence, 16 g ai/ha): 0
Plant response rating, Mallow ([2]; Postemergence, 31 g ai/ha): 0
Plant response rating, Mallow ([2]; Postemergence, 62 g ai/ha): 0
Plant response rating, Signalgrass ([3]; 16 g ai/ha, Preemergence): 75
Plant response rating, Signalgrass ([3]; 31 g ai/ha, Preemergence): 98
Plant response rating, Signalgrass ([3]; 62 g ai/ha, Preemergence): 100
Plant response rating, Signalgrass ([3]; Postemergence, 8 g ai/ha): 75
Plant response rating, Signalgrass ([3]; Postemergence, 16 g ai/ha): 75
Plant response rating, Signalgrass ([3]; Postemergence, 31 g ai/ha): 95
Plant response rating, Signalgrass ([3]; Postemergence, 62 g ai/ha): 100
Plant response rating, Itchgrass ([4]; 16 g ai/ha, Preemergence): 60
Plant response rating, Itchgrass ([4]; 31 g ai/ha, Preemergence): 80
Plant response rating, Itchgrass ([4]; 62 g ai/ha, Preemergence): 80
Plant response rating, Itchgrass ([4]; Postemergence, 8 g ai/ha): 40
Plant response rating, Itchgrass ([4]; Postemergence, 16 g ai/ha): 65
Plant response rating, Itchgrass ([4]; Postemergence, 31 g ai/ha): 70
Plant response rating, Itchgrass ([4]; Postemergence, 62 g ai/ha): 75
Plant response rating, Chickweed ([5]; 8 g ai/ha): 0
Plant response rating, Chickweed ([5]; 16 g ai/ha): 0
Plant response rating, Chickweed ([5]; 31 g ai/ha): 0
Plant response rating, Foxtail, Green ([6]; 8 g ai/ha, Preemergence): 40
Plant response rating, Foxtail, Green ([6]; 16 g ai/ha, Preemergence): 65
Plant response rating, Foxtail, Green ([6]; 31 g ai/ha, Preemergence): 100
Plant response rating, Foxtail, Green ([6]; 62 g ai/ha, Preemergence): 100
Plant response rating, Foxtail, Green ([6]; Postemergence, 8 g ai/ha): 60
Plant response rating, Foxtail, Green ([6]; Postemergence, 16 g ai/ha): 65
Plant response rating, Foxtail, Green ([6]; Postemergence, 31 g ai/ha): 75
Plant response rating, Foxtail, Green ([6]; Postemergence, 62 g ai/ha): 95
Plant response rating, Crabgrass, Naked ([7]; 8 g ai/ha, Preemergence): 75
Plant response rating, Crabgrass, Naked ([7]; 16 g ai/ha, Preemergence): 95
Plant response rating, Crabgrass, Naked ([7]; 31 g ai/ha, Preemergence): 100
Plant response rating, Crabgrass, Naked ([7]; 62 g ai/ha, Preemergence): 100
Plant response rating, Crabgrass, Naked ([7]; Postemergence, 8 g ai/ha): 75
Plant response rating, Crabgrass, Naked ([7]; Postemergence, 16 g ai/ha): 90
Plant response rating, Crabgrass, Naked ([7]; Postemergence, 31 g ai/ha): 90
Plant response rating, Crabgrass, Naked ([7]; Postemergence, 62 g ai/ha): 98
Plant response rating, Johnsongrass ([8]; 16 g ai/ha, Preemergence): 75
Plant response rating, Johnsongrass ([8]; 31 g ai/ha, Preemergence): 85
Plant response rating, Johnsongrass ([8]; 62 g ai/ha, Preemergence): 98
Plant response rating, Johnsongrass ([8]; Postemergence, 8 g ai/ha): 50
Plant response rating, Johnsongrass ([8]; Postemergence, 16 g ai/ha): 75
Plant response rating, Johnsongrass ([8]; Postemergence, 31 g ai/ha): 98
Plant response rating, Johnsongrass ([8]; Postemergence, 62 g ai/ha): 98
Plant response rating, Barnyardgrass ([9]; 8 g ai/ha, Preemergence): 65
Plant response rating, Barnyardgrass ([9]; 16 g ai/ha, Preemergence): 80
Plant response rating, Barnyardgrass ([9]; 31 g ai/ha, Preemergence): 100
Plant response rating, Barnyardgrass ([9]; 62 g ai/ha, Preemergence): 100
Plant response rating, Barnyardgrass ([9]; Postemergence, 8 g ai/ha): 95
Plant response rating, Barnyardgrass ([9]; Postemergence, 16 g ai/ha): 100
Plant response rating, Barnyardgrass ([9]; Postemergence, 31 g ai/ha): 100
Plant response rating, Barnyardgrass ([9]; Postemergence, 62 g ai/ha): 100
Plant response rating, Dallisgrass ([10]; 8 g ai/ha, Preemergence): 25
Plant response rating, Dallisgrass ([10]; 16 g ai/ha, Preemergence): 50
Plant response rating, Dallisgrass ([10]; 31 g ai/ha, Preemergence): 80
Plant response rating, Dallisgrass ([10]; 62 g ai/ha, Preemergence): 100
Plant response rating, Dallisgrass ([10]; Postemergence, 8 g ai/ha): 35
Plant response rating, Dallisgrass ([10]; Postemergence, 16 g ai/ha): 35
Plant response rating, Dallisgrass ([10]; Postemergence, 31 g ai/ha): 65
Plant response rating, Dallisgrass ([10]; Postemergence, 62 g ai/ha): 65
Plant response rating, Bermudagrass ([11]; 8 g ai/ha, Preemergence): 90
Plant response rating, Bermudagrass ([11]; 16 g ai/ha, Preemergence): 90
Plant response rating, Bermudagrass ([11]; 31 g ai/ha, Preemergence): 98
Plant response rating, Bermudagrass ([11]; 62 g ai/ha, Preemergence): 100
Plant response rating, Bermudagrass ([11]; Postemergence, 8 g ai/ha): 70
Plant response rating, Bermudagrass ([11]; Postemergence, 16 g ai/ha): 80
Plant response rating, Bermudagrass ([11]; Postemergence, 31 g ai/ha): 90
Plant response rating, Bermudagrass ([11]; Postemergence, 62 g ai/ha): 95
Plant response rating, Bluegrass ([12]; 8 g ai/ha, Preemergence): 0
Plant response rating, Bluegrass ([12]; 16 g ai/ha, Preemergence): 0
Plant response rating, Bluegrass ([12]; 31 g ai/ha, Preemergence): 0
Plant response rating, Bluegrass ([12]; 62 g ai/ha, Preemergence): 0
Plant response rating, Bluegrass ([12]; Postemergence, 8 g ai/ha): 0
Plant response rating, Bluegrass ([12]; Postemergence, 16 g ai/ha): 0
Plant response rating, Bluegrass ([12]; Postemergence, 31 g ai/ha): 5
Plant response rating, Bluegrass ([12]; Postemergence, 62 g ai/ha): 5
